Experiments:
[1] = Total clearance in rat at 1 mg/kg, iv; assay type: ADME, organism-based; parameters: dose 1 mg/kg, route intravenous; conditions: in vivo
[2] = Volume of distribution at steady state in rat at 1 mg/kg, iv; assay type: ADME, organism-based; parameters: dose 1 mg/kg, route intravenous; conditions: in vivo, read-out: Vdss
[3] = target: T1, Cytochrome P450 1A2 (Homo sapiens, UniProt P05177); test: Inhibition of CYP1A2; assay type: ADME
T1 sequence (P05177 whole entry): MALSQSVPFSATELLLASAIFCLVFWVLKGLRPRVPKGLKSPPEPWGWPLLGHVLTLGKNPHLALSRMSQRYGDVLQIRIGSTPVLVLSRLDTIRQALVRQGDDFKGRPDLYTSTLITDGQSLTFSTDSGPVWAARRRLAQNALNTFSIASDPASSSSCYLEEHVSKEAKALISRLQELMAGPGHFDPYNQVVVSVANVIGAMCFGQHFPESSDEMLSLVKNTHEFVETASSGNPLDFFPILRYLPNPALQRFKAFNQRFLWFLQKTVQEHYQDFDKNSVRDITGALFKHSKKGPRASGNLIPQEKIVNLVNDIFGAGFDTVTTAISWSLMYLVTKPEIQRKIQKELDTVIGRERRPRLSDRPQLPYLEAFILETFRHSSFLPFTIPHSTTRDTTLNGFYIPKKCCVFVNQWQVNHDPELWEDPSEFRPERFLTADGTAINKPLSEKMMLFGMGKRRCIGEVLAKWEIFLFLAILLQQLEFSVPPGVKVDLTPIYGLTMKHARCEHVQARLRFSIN

[4] = Half life in rat at 1 mg/kg, iv; assay type: ADME, organism-based; parameters: dose 1 mg/kg, route intravenous; conditions: in vivo
[5] = Oral bioavailability in rat at 3 mg/kg; assay type: ADME, organism-based; conditions: in vivo
[6] = Tmax in rat at 3 mg/kg, po; assay type: ADME, organism-based; parameters: dose 3 mg/kg, route oral; conditions: in vivo
[7] = system: Mus musculus; test: Antihyperglycemic activity in ICR mouse assessed as blood glucose lowering ratio at 10 mg/kg, po administered 10 mins prior glucose challenge measured after 30 mins by oral glucose tolerance test; assay type: functional
[8] = target: T2, Glucose-dependent insulinotropic receptor (Homo sapiens) (UniProt Q8TDV5); test: Agonist activity at human GPR119 expressed in HEK293 cells co-transfected with pCRE-Luc assessed as induction in cAMP level after 6 hrs by luciferase reporter gene assay relative to 10 uM of 2-{[2-(4-Bromophenyl)-6-methylpyrimidin-4-yl]amino}ethanol; assay type: functional, cell-based
T2 sequence (whole entry): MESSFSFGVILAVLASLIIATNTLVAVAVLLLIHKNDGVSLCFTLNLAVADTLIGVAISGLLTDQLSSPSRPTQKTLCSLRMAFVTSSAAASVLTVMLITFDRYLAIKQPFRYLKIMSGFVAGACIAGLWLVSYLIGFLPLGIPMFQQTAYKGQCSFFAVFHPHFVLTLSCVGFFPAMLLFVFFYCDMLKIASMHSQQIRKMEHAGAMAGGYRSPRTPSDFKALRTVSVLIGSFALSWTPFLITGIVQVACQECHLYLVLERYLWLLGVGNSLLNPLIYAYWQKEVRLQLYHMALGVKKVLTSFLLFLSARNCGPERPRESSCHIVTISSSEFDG

[9] = target: T2, Glucose-dependent insulinotropic receptor (Homo sapiens); test: Agonist activity at human GPR119 expressed in HEK293 cells co-transfected with pCRE-Luc assessed as induction in cAMP level at 10 uM after 6 hrs by luciferase reporter gene assay relative to 10 uM of 2-{[2-(4-Bromophenyl)-6-methylpyrimidin-4-yl]amino}ethanol; assay type: functional, cell-based
[10] = system: Mus musculus; test: Antihyperglycemic activity in ICR mouse assessed as blood glucose lowering ratio at 30 mg/kg, po administered 10 mins prior glucose challenge measured after 30 mins by oral glucose tolerance test; assay type: functional

Structure (SMILES) | IC50 [3] [nM] | EC [8] [µM] | Intrinsic activity [9] [%] | Activity [7] [%] | further results
Cc1cc(NCCc2ccc[n+]([O-])c2)nc(-c2ccc(Br)cc2)n1 | 970 |  |  | 38 | clearance [1]: 20.1 mL/min/kg; Vd [2]: 2 L/kg; half-life [4]: 72 min; bioavailability [5]: 56%; Tmax [6]: 15 min
Cc1cc(NCC(C)O)nc(-c2ccc(Br)cc2)n1 (stereo unspecified) |  | 3.6 | 209 |  | 
Cc1cc(NCc2cccnc2)nc(-c2ccc(Br)cc2)n1 | < 46 | 1.3 | 294 |  | 
Cc1cc(NC(C)CO)nc(-c2ccc(Br)cc2)n1 (stereo unspecified) |  | 13 | 82 |  | 
Cc1cc(NCCc2cccnc2)nc(-c2ccc(Br)cc2)n1 | < 91 | 0.73 | 772 | 17 | 
Cc1cc(NCC(C)C)nc(-c2ccc(Br)cc2)n1 | < 91 | 0.91 | 322 | 24 | 
OCCNc1cc(C(F)F)nc(-c2ccc(Br)cc2)n1 |  | 8.2 | 195 |  | 

The next lines start with results.

IC50 [3] [nM] | EC [8] [µM] | Intrinsic activity [9] [%] | Structure (SMILES) | Activity [7] [%] | further results
660 |  |  | Cc1cc(NCCO)nc(-c2ccc(Br)cc2)n1 |  | Activity [10]: 17%
 | 19 | 66 | Cc1cc(NCCO)nc(-c2ccc(I)cc2)n1 |  | 
 | 5.9 | 146 | CCc1cc(NCCO)nc(-c2ccc(Br)cc2)n1 |  | 
< 91 | 1.8 | 209 | COCCNc1cc(C)nc(-c2ccc(Br)cc2)n1 | 13 | 
 | 12 | 48 | Cc1cc(NCCO)nc(-c2ccc(Cl)cc2)n1 |  | 
